Values quoted from earlier work in patent US7968511B2, “Combination therapy with glatiramer acetate and mitoxantrone for the treatment of multiple sclerosis” (Teva Pharmaceutical Industries, Ltd., priority 2003, dated 2011).

System: multiple sclerosis (MS)
Conditions: daily subcutaneous injections, 20 mg/injection

L-glutamic acid polymer with L-alanine, L-lysine and L-tyrosine, acetate (salt) [glatiramer acetate]
reduce: appearance of "black holes" | appearance of new lesions by magnetic resonance imaging (MRI) | progression of disability | relapse rates
